Assay results reported in ChEMBL document CHEMBL1201862, “PubChem BioAssay data set” (2004).
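Tested at 5 concentrations; 48 h exposure; 96-well plates; endpoints linearly interpolated, else capped at highest concentration. Abbreviation: GI50, concentration required for 50% inhibition of growth.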 The source made the active and inactive calls. Cut-off read from the data, not from the text of the source: active = GI50 up to about 1.1 µM and inactive = higher.

Key:
Experiment in all cases: growth of human tumour cells (NCI), 48 h
[1] = test system: EKVX
[2] = test system: SNB-75
[3] = test system: ACHN
[4] = test system: SR
[5] = test system: HCT-116
[6] = test system: KM12
[7] = test system: SF-268
[8] = test system: A549
[9] = test system: SW-620
[10] = test system: RXF 393
[11] = test system: U-251
[12] = test system: SN12C
[13] = test system: HOP-92
[14] = test system: K562
[15] = test system: SK-MEL-28
[16] = test system: MCF7
[17] = test system: DU-145
[18] = test system: T47D

Measured: GI50

CCC/C=C\C=C\C1(NS(=O)(=O)c2ccc(C)cc2)CCC(C(C)(C)C)CC1 (centres undefined)
inactive: [1] 14.2 µM | [2] 23.4 µM | [3] 18.2 µM | [4] 3.15 µM | [5] 15.4 µM | [6] 16.5 µM | [7] 17.4 µM | [8] 15.4 µM | [9] 17.9 µM | [10] 13.7 µM | [11] 12.5 µM | [12] 11.2 µM | [13] 22.9 µM | [14] 12.5 µM

O=C1Cc2ccccc2CCc2ccsc21
inactive: [1] > 100 µM | [2] 61.2 µM | [15] > 100 µM | [4] > 100 µM | [5] > 100 µM | [6] > 100 µM | [7] > 100 µM | [8] > 100 µM | [9] > 100 µM | [10] > 100 µM | [11] > 100 µM | [12] > 100 µM | [13] 40 µM | [14] > 100 µM

Cn1cccc(C(=O)c2ccccc2)c1=O
inactive: [1] > 100 µM | [2] > 100 µM | [15] > 100 µM | [3] > 100 µM | [4] > 100 µM | [5] > 100 µM | [6] > 100 µM | [7] > 100 µM | [8] > 100 µM | [9] > 100 µM | [10] > 100 µM | [11] > 100 µM | [12] > 100 µM | [13] > 100 µM | [14] > 100 µM

Cc1cccnc1N/C=C1\C(=O)NC(=O)N(C)C1=O
inactive: [1] 44 µM | [2] 35.9 µM | [15] > 100 µM | [3] > 100 µM | [5] > 100 µM | [16] > 100 µM | [6] > 100 µM | [7] > 100 µM | [17] > 100 µM | [8] > 100 µM | [9] > 100 µM | [11] > 100 µM | [12] > 100 µM | [13] 65.6 µM | [18] 55.7 µM

N#CCCC[Si]12OCCN(CCO1)CCO2
inactive: [1] > 100 µM | [2] > 100 µM | [15] > 100 µM | [3] > 100 µM | [4] > 100 µM | [5] > 100 µM | [6] > 100 µM | [7] > 100 µM | [8] > 100 µM | [9] > 100 µM | [10] > 100 µM | [11] > 100 µM | [12] > 100 µM | [13] > 100 µM | [14] > 100 µM

Cc1cc(C(=C2C=CC(=[N+](C)C)C=C2)c2ccc([N+](C)(C)C)cc2)ccc1N(C)C
inactive: [1] 4.32 µM | [2] 2.65 µM | [15] 11.3 µM | [3] 10.7 µM | [4] 1.62 µM | [5] 3.23 µM | [6] 4.66 µM | [7] 11.6 µM | [8] 4.33 µM | [9] 5.31 µM | [10] 5.65 µM | [11] 5.53 µM | [12] 5.07 µM | [13] 10.9 µM | [14] 2.07 µM

CC(=O)C1CC=C(C)CC1 (centres undefined)
inactive: [1] > 100 µM | [2] > 100 µM | [15] > 100 µM | [3] > 100 µM | [4] > 100 µM | [5] > 100 µM | [6] > 100 µM | [7] > 100 µM | [8] > 100 µM | [9] > 100 µM | [10] > 100 µM | [11] > 100 µM | [12] > 100 µM | [13] > 100 µM | [14] > 100 µM

CCOC1(COP(=O)(OCc2ccccc2)OCc2ccccc2)COC(COP(=O)(OCc2ccccc2)OCc2ccccc2)(OCC)CO1 (centres undefined)
inactive: [1] 2.32 µM | [15] > 100 µM | [3] 7.82 µM | [4] > 100 µM | [5] > 100 µM | [6] > 100 µM | [7] > 100 µM | [8] 9.02 µM | [9] > 100 µM | [10] 4.33 µM | [11] > 100 µM | [12] > 100 µM | [13] 2.99 µM | [14] > 100 µM

COC(=O)C(C)(C)/N=C/N(C)C
inactive: [1] > 100 µM | [2] > 100 µM | [15] > 100 µM | [3] > 100 µM | [4] > 100 µM | [5] > 100 µM | [6] > 100 µM | [7] > 100 µM | [8] > 100 µM | [9] 28.4 µM | [10] 86.5 µM | [11] > 100 µM | [12] > 100 µM | [13] > 100 µM | [14] > 100 µM

COC(=O)C1=C(c2ccc3c(c2)OCO3)O[C@H](c2cc(OC)c(OC)c(OC)c2)[C@H]1COC(C)=O
inactive: [1] 38.3 µM | [2] 4.06 µM | [15] 12.2 µM | [3] 4.91 µM | [4] 1.35 µM | [5] 4.55 µM | [6] 4.31 µM | [7] 7.5 µM | [8] 7.08 µM | [9] 3.87 µM | [10] 1.57 µM | [11] 3.48 µM | [12] 4.34 µM | [13] 2.67 µM | [14] 3.22 µM

Clc1ccccc1C(n1cc(Br)cn1)n1cc(Br)cn1
inactive: [2] 5.81 µM | [15] 40.7 µM | [3] 16.5 µM | [4] 18.8 µM | [5] 15 µM | [6] 15.3 µM | [7] > 10 µM | [9] > 10 µM | [10] 16.7 µM | [11] 18.5 µM | [12] 16.3 µM | [13] 7.48 µM | [14] 19.1 µM

NCCOc1ccc(/C(=C(/Cl)c2ccccc2)c2ccccc2)cc1
inactive: [1] 15.1 µM | [2] 11.4 µM | [15] 5.66 µM | [3] 14 µM | [4] 3.21 µM | [5] 7.19 µM | [6] 5.18 µM | [7] 13.2 µM | [8] 16 µM | [9] 4.19 µM | [10] 4.03 µM | [11] 10.9 µM | [12] 9.66 µM | [13] 5.18 µM | [14] 3.32 µM

O=C(Nc1nc2ccc([N+](=O)[O-])cc2s1)C(=O)C(C(=O)c1ccncc1)C1OC(=O)c2ccccc21 (centres undefined)
inactive: [1] 92.5 µM | [2] 33.9 µM | [3] > 100 µM | [4] > 100 µM | [5] > 100 µM | [6] > 100 µM | [7] > 100 µM | [8] > 100 µM | [9] > 100 µM | [10] > 100 µM | [11] > 100 µM | [12] > 100 µM | [13] > 100 µM | [14] > 100 µM

Cc1c(/C=N/NC(=O)c2ccc(Cl)cc2)c(=O)n(-c2ccccc2)n1C
inactive: [1] > 100 µM | [2] > 100 µM | [15] > 100 µM | [3] > 100 µM | [4] > 100 µM | [5] > 100 µM | [6] > 100 µM | [7] > 100 µM | [8] > 100 µM | [9] > 100 µM | [10] > 100 µM | [11] > 100 µM | [12] > 100 µM | [13] > 100 µM | [14] > 100 µM
